The source made the active and inactive calls. The calls are words filed in the database; no cut-off is given here.
What was measured:
Escherichia coli [1] = experiment: Induction of Escherichia coli supercoiled pBR322 DNA cleavage assessed as increase in open circular form measured after UV irradiation by agarose gel electrophoresis analysis
[2] = Antioxidant activity assessed as suppression ratio of hydroxyl radical formation at 3.5 uM after 30 mins by absorbance analysis; type: functional
[3] = Antitumor activity against human MG63 cells assessed as growth inhibition after 48 hrs by MTT assay; type: functional, cell-based; conditions: MG-63, 48 h
[4] = Antioxidant activity assessed as suppression of hydroxyl radical formation after 30 mins by absorbance analysis; type: functional
[5] = Antioxidant activity assessed as suppression ratio of hydroxyl radical formation at 0.5 uM after 30 mins by absorbance analysis; type: functional
[6] = Antioxidant activity assessed as suppression ratio of hydroxyl radical formation at 3 uM after 30 mins by absorbance analysis; type: functional
Calf thymus DNA [7] = experiment: Binding affinity to calf thymus DNA assessed as luminescence intensity at compound to DNA ratio of 1:2 by job plot analysis; type: nucleic-acid assay; conditions: Bos taurus
[8] = Antioxidant activity assessed as suppression ratio of hydroxyl radical formation at 1.5 uM after 30 mins by absorbance analysis; type: functional
Escherichia coli [9] = experiment: Induction of Escherichia coli supercoiled pBR322 DNA cleavage assessed as decrease in intact supercoiled form measured after UV irradiation by agarose gel electrophoresis analysis
A549 [10] = experiment: Antitumor activity against human A549 cells assessed as growth inhibition after 48 hrs by MTT assay; type: functional, cell-based; conditions: A549, 48 h
[11] = Antioxidant activity assessed as suppression ratio of hydroxyl radical formation at 2 uM after 30 mins by absorbance analysis; type: functional
Bos taurus [12] = species: Bos taurus; experiment: Intrinsic binding affinity to calf thymus DNA at 231 nm after 5 mins by electronic absorption analysis
[13] = Antitumor activity against human SKBR3 cells assessed as growth inhibition after 48 hrs by MTT assay; type: functional, cell-based; conditions: SK-BR-3, 48 h
[14] = Antioxidant activity assessed as suppression ratio of hydroxyl radical formation at 1 uM after 30 mins by absorbance analysis; type: functional
Calf thymus DNA [15] = experiment: Binding affinity to calf thymus DNA assessed as decrease in compound emission intensity at 356 nm at 20 uM by luminescence spectrometer analysis; type: nucleic-acid assay; conditions: Bos taurus
[16] = Antioxidant activity assessed as suppression ratio of hydroxyl radical formation at 2.5 uM after 30 mins by absorbance analysis; type: functional
[17] = Antitumor activity against human Bel7402 cells assessed as growth inhibition after 48 hrs by MTT assay; type: functional, cell-based; conditions: Bel-7402, 48 h
Calf thymus DNA [18] = experiment: Binding affinity to calf thymus DNA assessed as hypochromicity at 231 nm at 40 uM after 5 mins by electronic absorption analysis; type: nucleic-acid assay; conditions: Bos taurus
Calf thymus DNA [19] = experiment: Binding affinity to calf thymus DNA assessed as intercalation by measuring viscosity by viscometer analysis; type: nucleic-acid assay; conditions: Bos taurus
Calf thymus DNA [20] = experiment: Binding affinity to calf thymus DNA assessed as luminescence intensity at compound to DNA ratio of 1:1 by job plot analysis; type: nucleic-acid assay; conditions: Bos taurus
Calf thymus DNA [21] = experiment: Binding affinity to calf thymus DNA assessed as decrease in compound emission intensity at 705 nm at 20 uM by luminescence spectrometer analysis; type: nucleic-acid assay; conditions: Bos taurus
A549 [22] = experiment: Induction of apoptosis in human A549 cells assessed as viable cells at 50 uM after 24 hrs by flow cytometry (reference value: 92.28%); type: functional; conditions: A549, 24 h, read-out: Activity
A549 [23] = experiment: Induction of cell cycle arrest in human A549 cells assessed as accumulation at G2/M phase of cell cycle at 25 uM after 24 hrs by propidium iodide staining based flow cytometry (reference value: 14.73%); type: functional
Calf thymus DNA [24] = experiment: Binding affinity to calf thymus DNA assessed as increase in compound emission intensity at 446 nm at 20 uM by luminescence spectrometer analysis; type: nucleic-acid assay; conditions: Bos taurus
Calf thymus DNA [25] = experiment: Binding affinity to calf thymus DNA assessed as luminescence intensity at compound to DNA ratio of 4:1 by job plot analysis; type: nucleic-acid assay; conditions: Bos taurus
Bos taurus [26] = species: Bos taurus; experiment: Intrinsic binding affinity to calf thymus DNA at 233 nm after 5 mins by electronic absorption analysis
A549 [27] = experiment: Induction of cell cycle arrest in human A549 cells assessed as accumulation at S phase of cell cycle at 25 uM after 24 hrs by propidium iodide staining based flow cytometry (reference value: 9.8%); type: functional
A549 [28] = experiment: Induction of apoptosis in human A549 cells assessed as apoptotic cells at 50 uM after 24 hrs by flow cytometry (reference value: 0%); type: functional
A549 [29] = experiment: Induction of apoptosis in human A549 cells assessed as apoptotic cells at 25 uM after 24 hrs by flow cytometry (reference value: 0%); type: functional
A549 [30] = experiment: Induction of apoptosis in human A549 cells assessed as viable cells at 25 uM after 24 hrs by flow cytometry (reference value: 92.28%); type: functional; conditions: A549, 24 h, read-out: Activity
Calf thymus DNA [31] = experiment: Binding affinity to calf thymus DNA assessed as hypochromicity at 233 nm at 40 uM after 5 mins by electronic absorption analysis; type: nucleic-acid assay; conditions: Bos taurus
A549 [32] = experiment: Induction of cell cycle arrest in human A549 cells assessed as accumulation at G0/G1 phase of cell cycle at 25 uM after 24 hrs by propidium iodide staining based flow cytometry (reference value: 73.79%); type: functional
A549 [33] = experiment: Induction of apoptosis in human A549 cells assessed as necrotic cells at 25 uM after 24 hrs by flow cytometry (reference value: 0.04%); type: functional
A549 [34] = experiment: Induction of apoptosis in human A549 cells assessed as necrotic cells at 50 uM after 24 hrs by flow cytometry (reference value: 0.04%); type: functional
A549 [35] = experiment: Induction of apoptosis in human A549 cells after 24 hrs by flow cytometry; type: functional, cell-based

Row | SMILES | Activity (Escherichia coli [1]) | inhibition [2] [%] | IC50 [3] [µM] | inhibition [4] | inhibition [5] [%] | inhibition [6] [%] | inhibition [8] [%] | Activity (Escherichia coli [9]) | IC50 (A549 [10]) [µM] | inhibition [11] [%] | Kb (Bos taurus [12]) [×10³ /M] | IC50 [13] [µM] | inhibition [14] [%] | inhibition [16] [%] | IC50 [17] [µM] | Activity (Calf thymus DNA [18]) [%] | Activity (Calf thymus DNA [19]) | other results
1 | OCc1nc2cc(-c3c(O)ccc4ccccc34)c3ccccc3c2o1 | Active | 88.2 | > 100 | Dose-dependent effect | 4.04 | 87.9 | 12.3 | Active | > 100 | 23.9 | 5.31 | > 100 | 9.24 | 26.9 | > 100 | 33.4 | Active | Flu intensity (Calf thymus DNA [7]): 0.32 a.u.; inhibition (Calf thymus DNA [15]): 79.6%
2 | CC(=O)OCc1nc2cc(-c3c(OC(C)=O)ccc4ccccc34)c3ccccc3c2o1 | Active | 89 | > 100 | Dose-dependent effect | 18.9 | 86.4 | 50.4 | Active | > 100 | 75.7 | 2.64 | > 100 | 32.5 | 81.2 | > 100 | 29 | Active | Flu intensity (Calf thymus DNA [20]): 0.54 a.u.; inhibition (Calf thymus DNA [21]): 60.4%
3 | OCc1nc2cc(-c3c(O)ccc4cc(Br)ccc34)c3cc(Br)ccc3c2o1 | Active | 86.7 | > 100 | Dose-dependent effect | 15.2 | 80.9 | 28.3 | Active | 59.8 | 35.9 |  | > 100 | 23.5 | 52.8 | 56.4 |  | Active | viability at 50 µM (A549 [22]): 80%; Activity (A549 [23]): 15.5%; Activity (Calf thymus DNA [24]): 5.76%; Flu intensity (Calf thymus DNA [25]): 0.8 a.u.; Kb (Bos taurus [26]): 4.44 ×10³ /M; Activity (A549 [27]): 11.16%; Activity (A549 [28]): 4.09%; Activity (A549 [29]): 3.57%; viability at 25 µM (A549 [30]): 83.5%; Activity (Calf thymus DNA [31]): 34.6%; Activity (A549 [32]): 71.9%; Activity (A549 [33]): 2.87%; Activity (A549 [34]): 3.18%; Activity (A549 [35]): Dose-dependent effect

Source: ChEMBL document CHEMBL3259618, “Synthesis, molecular structure, DNA-binding, cytotoxicity, apoptosis and antioxidant activity of compounds containing aryloxazole” (Eur J Med Chem, 2014)
